Results reported in patent US20110105491A1, “THIAZOLIDINE COMPOUNDS AS OREXIN RECEPTOR ANTAGONISTS” (priority 2008, published 2011).
Read-outs that look alike come from different tables or passages of the source.

What was measured:
human orexin-1 receptor = target: T1, human orexin-1 receptor (Homo sapiens, UniProt O43613); test: FLIPR calcium assay of orexin receptor antagonistic activity, CHO cells expressing human orexin-1 receptor; assay type: cell-based; details: 3 nM orexin-A as agonist; not normalized; *2/*3 = geometric mean of n = 2/3 values; read-out: OX1 IC50
T1 construct: expressed in transfected cells; host or cells: Chinese hamster ovary (CHO) cells
T1 sequence (O43613 1-425): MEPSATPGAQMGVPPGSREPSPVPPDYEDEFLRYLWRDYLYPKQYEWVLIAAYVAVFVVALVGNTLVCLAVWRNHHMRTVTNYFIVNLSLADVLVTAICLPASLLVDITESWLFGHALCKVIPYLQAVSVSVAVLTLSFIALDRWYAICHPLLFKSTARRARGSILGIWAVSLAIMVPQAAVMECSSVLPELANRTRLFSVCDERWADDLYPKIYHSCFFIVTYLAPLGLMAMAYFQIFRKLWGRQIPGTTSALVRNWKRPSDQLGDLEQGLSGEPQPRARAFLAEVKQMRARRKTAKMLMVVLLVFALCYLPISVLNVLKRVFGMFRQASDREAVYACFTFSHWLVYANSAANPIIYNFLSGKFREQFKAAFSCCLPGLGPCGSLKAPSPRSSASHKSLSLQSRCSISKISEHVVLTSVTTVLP
Procedure: (§1) The orexin receptor antagonistic activity of the compounds of formula (I) is determined in accordance with the following experimental method.
(§2) Chinese hamster ovary (CHO) cells expressing the human orexin-1 receptor and the human orexin-2 receptor, respectively, are grown in culture medium (Ham F-12 with L-Glutamine) containing 300 μg/ml G418, […] penicillin, 100 μg/ml streptomycin and 10% heat inactivated fetal calf serum (FCS). The cells are seeded at 20′000 cells/well into 384-well black clear bottom sterile plates (Greiner). The seeded plates are incubated overnight at 37° C. in 5% CO2.
(§3) Human orexin-A as an agonist is prepared as 1 mM stock solution in MeOH:water (1:1), diluted in HBSS containing 0.1% bovine serum albumin (BSA), NaHCO3: 0.375 g/l and 20 mM HEPES for use in the assay at a final concentration of 3 nM.
(§4) Antagonists are prepared as 10 mM stock solution in DMSO, then diluted in 384-well plates using DMSO followed by a transfer of the dilutions into in HBSS containing 0.1% bovine serum albumin (BSA), NaHCO3: 0.375 g/l and 20 mM HEPES. On the day of the assay, 50 μl of staining buffer (HBSS containing 1% FCS, 20 mM HEPES, NaHCO3: 0.375 g/l, 5 mM probenecid (Sigma) and 3 μM of the fluorescent calcium indicator fluo-4 AM (1 mM stock solution in DMSO, containing 10% pluronic) is added to each well. The 384-well cell-plates are incubated for 50 min at 37° C. in 5% CO2 followed by equilibration at rt for 30-120 min before measurement.
(§5) Within the Fluorescent Imaging Plate Reader (FLIPR Tetra, Molecular Devices), antagonists are added to the plate in a volume of 10 μl/well, incubated for 10 min and finally […] of agonist is added. Fluorescence is measured for each well at 1 second intervals, and the height of each fluorescence peak is compared to the height of the fluorescence peak induced by 3 nM orexin-A with vehicle in place of antagonist. For each antagonist, the IC50 value (the concentration of compound needed to inhibit 50% of the agonistic response) is determined and may be normalized using the obtained IC50 value of a on-plate reference compound (normalized values in Table 1 are indicated by an asterisk *). Optimized conditions were achieved by adjustment of pipetting speed and cell splitting regime. The calculated IC50 values of the compounds may fluctuate depending on the daily cellular assay performance. Fluctuations of this kind are known to those skilled in the art.

human orexin-2 receptor = target: T2, human orexin-2 receptor (Homo sapiens, UniProt O43614); test: FLIPR calcium assay of orexin receptor antagonistic activity, CHO cells expressing human orexin-2 receptor; assay type: cell-based; details: read-out: OX2 IC50
T2 construct: expressed in transfected cells; host or cells: Chinese hamster ovary (CHO) cells
T2 sequence (O43614 1-444): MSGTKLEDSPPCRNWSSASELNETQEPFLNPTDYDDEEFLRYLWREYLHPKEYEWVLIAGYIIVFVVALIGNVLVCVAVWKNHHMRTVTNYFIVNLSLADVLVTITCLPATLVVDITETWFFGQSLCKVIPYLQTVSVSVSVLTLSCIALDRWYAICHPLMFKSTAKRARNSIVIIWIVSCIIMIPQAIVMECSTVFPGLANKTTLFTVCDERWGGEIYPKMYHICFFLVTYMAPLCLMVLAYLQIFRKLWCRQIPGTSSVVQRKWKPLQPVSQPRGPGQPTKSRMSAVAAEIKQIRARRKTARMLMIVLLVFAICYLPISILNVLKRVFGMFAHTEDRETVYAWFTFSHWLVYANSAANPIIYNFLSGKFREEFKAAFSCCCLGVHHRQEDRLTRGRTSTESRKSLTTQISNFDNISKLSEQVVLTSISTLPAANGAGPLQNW
Procedure: as §1, §2, §3, §4, §5

[1] = 3 nM orexin-A as agonist, not normalized, *2/*3 = geometric mean of n = 2/3 values

IC50 (human orexin-1 receptor)	IC50 (human orexin-2 receptor; [1])	IC50 (human orexin-2 receptor)	Structure (SMILES)
2 nM	2 nM	–	Cc1cccc(-c2sc(C)nc2C(=O)N2CCSC2CNC(=O)c2ccn3ccsc23)c1 (racemic) [Example 4, rac-Pyrrolo[2,1-b]thiazole-7-carboxylic acid [3-(2-methyl-5-m-tolyl-thiazole-4-carbonyl)-thiazolidin-2-ylmethyl]-amide]
17 nM	63 nM	–	Cc1cccc(-c2sc(C)nc2C(=O)N2CCSC2CNC(=O)c2ccc(C(F)(F)F)c3oc(C)cc23)c1 (racemic) [Example 11, rac-2-Methyl-7-trifluoromethyl-benzofuran-4-carboxylic acid [3-(2-methyl-5-m-tolyl-thiazole-4-carbonyl)-thiazolidin-2-ylmethyl]-amide]
4 nM	6 nM	–	Cc1cccc(-c2sc(C)nc2C(=O)N2CCSC2CNC(=O)c2cccc3ocnc23)c1 (racemic) [Example 17, rac-Benzooxazole-4-carboxylic acid [3-(2-methyl-5-m-tolyl-thiazole-4-carbonyl)thiazolidin-2-ylmethyl]-amide]
3 nM	7 nM	–	Cc1nc(-c2cccc(Cl)c2)c(C(=O)N2CCSC2CNC(=O)c2cccc3c2CCO3)s1 (racemic) [Example 29, rac-2,3-Dihydro-benzofuran-4-carboxylic acid {3-[4-(3-chloro-phenyl)-2-methyl-thiazole-5-carbonyl]-thiazolidin-2-ylmethyl}-amide]
4 nM	5 nM	–	COc1cccc(-c2nc(C)sc2C(=O)N2CCSC2CNC(=O)c2cccc3c2CCO3)c1 (racemic) [Example 32, rac-2,3-Dihydro-benzofuran-4-carboxylic acid {3-[4-(3-methoxy-phenyl)-2-methyl-thiazole-5-carbonyl]-thiazolidin-2-ylmethyl}-amide]
8 nM	86 nM	–	Cc1nc(-c2ccc(F)cc2)c(C(=O)N2CCSC2CNC(=O)c2nn(C)c3ccccc23)s1 (racemic) [Example 39, rac-1-Methyl-1H-indazole-3-carboxylic acid {3-[4-(4-fluoro-phenyl)-2-methyl-thiazole-5-carbonyl]-thiazolidin-2-ylmethyl}-amide]
10 nM	31 nM	–	Cc1ccc(-c2nc(C)sc2C(=O)N2CCSC2CNC(=O)c2cccc3c2OCCO3)cc1 (racemic) [Example 42, rac-2,3-Dihydro-benzo[1,4]dioxine-5-carboxylic acid [3-(2-methyl-4-p-tolyl-thiazole-5-carbonyl)-thiazolidin-2-ylmethyl]-amide]
7 nM	43 nM	–	Cc1nc(-c2cccc(C(F)(F)F)c2)c(C(=O)N2CCSC2CNC(=O)c2nn(C)c3ccccc23)s1 (racemic) [Example 50, rac-1-Methyl-1H-indazole-3-carboxylic acid {3-[2-methyl-4-(3-trifluoromethyl-phenyl)-thiazole-5-carbonyl]-thiazolidin-2-ylmethyl}-amide]
4 nM	10 nM	–	Cc1nc(C(=O)N2CCSC2CNC(=O)c2cccc3c2OCCO3)c(-c2ccccc2)s1 (racemic) [Example 57, rac-2,3-Dihydro-benzo[1,4]dioxine-5-carboxylic acid [3-(2-methyl-5-phenyl-thiazole-4-carbonyl)-thiazolidin-2-ylmethyl]-amide]
16 nM	28 nM	–	Cc1nc(C(=O)N2CCSC2CNC(=O)c2nn(C)c3ccccc23)c(-c2ccc(C(F)(F)F)cc2)s1 (racemic) [Example 61, rac-1-Methyl-1H-indazole-3-carboxylic acid {3-[2-methyl-5-(4-trifluoromethyl-phenyl)-thiazole-4-carbonyl]-thiazolidin-2-ylmethyl}-amide]
–	–	3 nM	COc1cccc(-c2nccnc2C(=O)N2CCSC2CNC(=O)c2cccc3ncsc23)c1 (racemic) [Example 196, rac-Benzothiazole-7-carboxylic acid {3-[3-(3-methoxy-phenyl)-pyrazine-2-carbonyl]-thiazolidin-2-ylmethyl}-amide]
